Assay results published in patent publication US9133157B2, “HIV protease inhibitors” (Merck Canada Inc., priority 2011, dated 2015).

Target: WT HIV-1 protease (Human immunodeficiency virus type 1 group M subtype B (isolate HXB2) (HIV-1), UniProt P04585)
Experiment: Assay for inhibition of microbial expressed HIV protease (Procedure A, peptide substrate, HPLC fluorescence detection)
Assay type: biochemical
Conditions: WT HIV-1 protease 10 pM, substrate 400 micromolar, pH 5.5, 30 min preincubation, 1 hour at 30° C.; read-out: Enzyme inhibition IC50
Method in brief: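 E. coli-expressed enzyme preincubated 30 min at room temperature with compound in 50 mM sodium acetate pH 5.5, 100 mM NaCl, 0.1% BSA. Reaction ran 1 h at 30° C with 400 micromolar Val-Ser-Gln-Asn-(betanaphthyl)Ala-Pro-Ile-Val substrate and 10 picomolar protease. After phosphoric acid quench, product was measured by C18 HPLC with fluorescence (ex 270/em 330 nm).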

Structure (SMILES) | IC50
COC(=O)N[C@H](C(=O)N[C@H](c1ccc([C@@H](CO)N(CCC(C)(C)C)S(=O)(=O)c2ccc(-c3ccno3)cc2)s1)C(F)(F)F)C(c1ccccc1)c1ccccc1 [Example 114, N-{(1S)-1-[5-((1R)-1-{(3,3-dimethylbutyl)[(4-isoxazol-5-ylphenyl)sulfonyl]amino}-2-hydroxyethyl)-2-thienyl]-2,2,2-trifluoroethyl}-Nα-(methoxycarbonyl)-β-phenyl-L-phenylalaninamide] | 0.77 nM
COC(=O)N[C@H](C(=O)N[C@H](c1ccc([C@@H](CO)N(CCC(C)(C)C)S(=O)(=O)c2ccc(N)c(Cl)c2)s1)C(F)(F)F)C(c1ccccc1)c1ccccc1 [Example 116, N-[(1S)-1-(5-{(1R)-1-[[(4-amino-3-chlorophenyl)sulfonyl](3,3-dimethylbutyl)amino]-2-hydroxyethyl}-2-thienyl)-2,2,2-trifluoroethyl]-Nα-(methoxycarbonyl)-β-phenyl-L-phenylalaninamide] | 3.54 nM
COC(=O)N[C@H](C(=O)NCc1ccc(C(CO)N(Cc2cnon2)S(=O)(=O)c2ccc(N)cc2)s1)C(c1ccccc1)c1ccccc1 (some centres unmarked) [Example 20] | 6.97 nM
COC(=O)N[C@H](C(=O)N[C@H](c1ccc([C@@H](CO)N(C(C)C)S(=O)(=O)c2ccc(N)s2)s1)C(F)(F)F)C(c1ccccc1)c1ccccc1 [Example 50, N-[(1S)-1-{5-[(1R)-1-{[(5-aminothiophen-2-yl)sulfonyl](propan-2-yl)amino}-2-hydroxyethyl]thiophen-2-yl}-2,2,2-trifluoroethyl]-Nα-(methoxycarbonyl)-β-phenyl-L-phenylalaninamide] | 121 nM
COC(=O)N[C@H](C(=O)NCc1ccc([C@@H](CO)N(CC2CC(F)(F)C2)S(=O)(=O)c2cccc(Cc3ccccn3)c2)s1)C(c1ccccc1)c1ccccc1 [Example 42] | 110 nM
COC(=O)N[C@H](C(=O)NCc1ccc(C(CO)N(CCC(C)C)S(=O)(=O)c2ccccc2)s1)C(c1ccccc1)c1ccccc1 (some centres unmarked) [Example 4] | 8.81 nM
CCCCN([C@H](CO)c1ccc([C@@H](NC(=O)[C@@H](NC(=O)OC)C(c2ccccc2)c2ccccc2)C(F)(F)F)s1)S(=O)(=O)c1ccc(N)cc1 [Example 88, N-[(1S)-1-{5-[(1R)-1-{[(4-aminophenyl)sulfonyl](butyl)amino}-2-hydroxyethyl]thiophen-2-yl}-2,2,2-trifluoroethyl]-Nα-(methoxycarbonyl)-β-phenyl-L-phenylalaninamide] | 0.33 nM
COC(=O)N[C@H](C(=O)N[C@H](c1ccc([C@@H](CO)N(CCC(C)(C)C)S(=O)(=O)c2ccc(N)cc2F)s1)C(F)(F)F)C(c1ccccc1)c1ccccc1 [Example 98, N-[(1S)-1-{5-[(1R)-1-{[(4-amino-2-fluorophenyl)sulfonyl](3,3-dimethylbutyl)amino}-2-hydroxyethyl]thiophen-2-yl}-2,2,2-trifluoroethyl]-Nα-(methoxycarbonyl)-β-phenyl-L-phenylalaninamide] | 0.44 nM
COC(=O)N[C@H](C(=O)N[C@H](c1ccc([C@@H](CO)N(CCC(C)(C)C)S(=O)(=O)c2ccc3cc[nH]c3c2)s1)C(F)(F)F)C(c1ccccc1)c1ccccc1 [Example 94, N-[(1S)-1-(5-{(1R)-1-[(3,3-dimethylbutyl)(1H-indol-6-ylsulfonyl)amino]-2-hydroxyethyl}thiophen-2-yl)-2,2,2-trifluoroethyl]-Nα-(methoxycarbonyl)-β-phenyl-L-phenylalaninamide] | 0.09 nM
COC(=O)N[C@H](C(=O)N[C@H](c1ccc([C@@H](CO)N(CCC(C)(C)C)S(=O)(=O)c2cc(F)c(CO)c(F)c2)s1)C(F)(F)F)C(c1ccccc1)c1ccccc1 [Example 52, N-[(1S)-1-(5-{(1R)-1-[{[3,5-difluoro-4-(hydroxymethyl)phenyl]sulfonyl}(3,3-dimethylbutyl)amino]-2-hydroxyethyl}thiophen-2-yl)-2,2,2-trifluoroethyl]-Nα-(methoxycarbonyl)-β-phenyl-L-phenylalaninamide] | 2 nM
COC(=O)N[C@H](C(=O)NCc1ccc([C@@H](CO)N(CC2CC(F)(F)C2)S(=O)(=O)c2ccc(N)cc2)s1)C(c1ccccc1)c1ccccc1 [Example 11] | 1.61 nM
